Source: patent publication US20250345492A1, “AN ANTIBACTERIAL POLYPEPTIDE COMPOUND, A MEDICAL DEVICE, HYDROGEL AND USE THEREOF” (priority 2020, published 2025)
Ends that are not written are not given here.

Experiments:
E. coli (ATCC 25922) = assay: Mouse septic peritonitis model, survival; assay type: in vivo, Kunming mice; settings: 20 mg/kg intraperitoneally one hour after E. coli inoculation, 7 days of observation
Method: The determination of the in vivo antibacterial activity of the antibacterial polypeptide compounds is to reflect the antibacterial activity in vivo by detecting the survival rate of mice infected with bacteria or fungi.
Taking compounds 2, 8, 9, 13 and 15 of the present invention as examples, the in vivo antibacterial effects of the antibacterial polypeptide compounds were analyzed. The mice used in this test were Kunming mice, which were placed in constant-temperature environment (22±1° C.). Simply, 36 Kunming mice (18-22 g of body weight) were randomly divided into 6 groups and intraperitoneally injected with 0.2 ml of 3×10^8 CFU/mL E. coli (ATCC 25922) on Day 1 to establish mouse septic peritonitis model. The mice were administered intraperitoneally one hour after inoculation with the bacteria, and then the compounds 2, 8, 9, 13 and 15 were injected intraperitoneally at a dose of 20 mg/kg of body weight. Polymyxin B (20 mg/kg) was selected as a positive reference control, and a negative control group received intraperitoneal injection of sterile saline. After 7 days of observation, the survival rates of mice in administration groups and control groups were calculated to create survival curves.

[1] = tested on: E. coli ML-35 (ATCC 43837); assay: Inner membrane permeability, ONPG / β-galactosidase release; assay type: cell-based; settings: 1×MIC to 8×MIC, 90 min
Method: The effect on the integrity of bacterial […] was determined by determining the release amount of β-galactosidase from E. coli ML-35 (ATCC 43837) with ONPG (o-nitrobenzene-β-D-galactoside), thereby detecting the effect of the compounds on the permeability of E. coli IM.
Taking compounds 2, 8, 9, 13 and 15 of the present invention as examples, the IM permeability of E. coli with the presence of the antibacterial polypeptide compounds was analyzed. E. coli ML-35 cells were washed twice with PBS solution and resuspended in 0.9% sodium chloride solution. […] The cells were detected at 420 nm once every 5 mins using a multifunctional ELISA reader within a 90-min period of time.

[2] = tested on: human embryonic renal epithelial cell HEK293; assay: Cytotoxicity, MTT colorimetry; assay type: cell-based
Method: (§1) For cytotoxicity determination, the MTT colorimetry was used to evaluate the effects of the compounds on the proliferation of human cervical cancer cell Hela, human embryonic renal epithelial cell HEK293 and mouse mononuclear macrophage RAW264.7.
(§2) Taking compounds 2, 8, 9, 13 and 15 of the present invention as examples, the cytotoxicity of the antibacterial polypeptide compounds was analyzed. Three cell lines were employed for the present invention, namely human cervical cancer cell Hela, human embryonic renal epithelial cell HEK293 and mouse mononuclear macrophage RAW264.7. Hela cells were cultured in RPMI 1640 medium with 10% newborn calf serum, HEK293 cells and RAW264.7 cells were cultured in DMEM medium with 10% fetal bovine serum. Simply, cells (1×10^4 cells/well) were inoculated to a 96-well plate and incubated in an incubator set to 5% CO2 at 37° C. After 24 hours, compounds of different concentrations were added and incubated in the 5% CO2 incubator. After 24 hours, 20 μL of MTT solution with a concentration of 5 mg/mL was added to each well and incubated for 4 hours. After that, the medium was removed with a pipet, and 150 μL of DMSO added to dissolve the purple-blue formazan crystals. The solution was shaken in an oscillator for 5 mins before detecting the absorbance value at 570 nm using the ELISA reader, and then the survival rate was calculated with the formula: (OD dosing group/OD control group)×100% (n=3).

[3] = tested on: human cervical cancer cell Hela; assay: Cytotoxicity, MTT colorimetry; assay type: cell-based
Method: as §1, §2

[4] = tested on: mouse mononuclear macrophage RAW264.7; assay: Cytotoxicity, MTT colorimetry; assay type: cell-based
Method: as §1, §2

Pro-Phe-Lys-Leu-Ser-Leu-His-Leu-NH2 (PFKLSLHL-NH2) [Compound J-1, reference compound]
survival rate of mice (E. coli (ATCC 25922)): about 50% | IM permeability of E. coli [1]: destroying the integrity of the E. coli IM in a dose-dependent manner

Pro-Trp-Orn-Leu-Orn-Leu-His-Leu-NH2 (PWXLXLHL; HELM PEPTIDE1{P.W.[Orn].L.[Orn].L.H.L.[am]}$$$$V2.0; N-terminus assumed; SMILES CC(C)C[C@H](NC(=O)[C@H](Cc1c[nH]cn1)NC(=O)[C@H](CC(C)C)NC(=O)[C@H](CCCN)NC(=O)[C@H](CC(C)C)NC(=O)[C@H](CCCN)NC(=O)[C@H](Cc1c[nH]c2ccccc12)NC(=O)[C@@H]1CCCN1)C(N)=O) [Compound 9]
IM permeability of E. coli [1]: destroying the integrity of the E. coli IM in a dose-dependent manner | effect on proliferation (inhibitory activity) [2]: no inhibitory activity | effect on proliferation (inhibitory activity) [3]: no inhibitory activity | effect on proliferation (inhibitory activity) [4]: no inhibitory activity
